Experimental findings from patent US10273248B2, “Glucose uptake inhibitors” (Kadmon Corporation LLC, priority 2015, dated 2019) are described below.

This assay relates to glycolysis in HT1080 cells. As to the kind of experiment: Glycolysis assay: oligomycin plus compound, cellular ATP by Cell Titer Glo. The assay is classed as cell-based. The note with it: Homo sapiens, HT-1080, 1 h, 10 μM oligomycin, one hour, class symbols. A digest of the protocol: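 Confluent HT1080 cells treated 1 h with compound plus 10 μM oligomycin to block mitochondrial ATP, so remaining ATP reflects glycolysis. Cellular ATP read by Cell Titer-Glo luminescence; IC50 derived from dose-response curves.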
Turning to `CC(C)NC(=O)COc1cccc(-c2nc3c(c(Nc4ccc(-c5cn[nH]c5)cc4)n2)COCC3)c1` [Example 102, 2-(3-(4-((4-(1H-pyrazol-4-yl)phenyl)amino)-7,8-dihydro-5H-pyrano[4,3-d]pyrimidin-2-yl)phenoxy)-N-isopropylacetamide], the IC50 is 10 to 100 nM. To `CCC(C)NC(=O)COc1cccc(-c2nc3c(c(Nc4ccc(-c5cn[nH]c5)cc4)n2)COCC3)c1` (stereo not drawn) [Example 103, 2-(3-(4-((4-(1H-pyrazol-4-yl)phenyl)amino)-7,8-dihydro-5H-pyrano[4,3-d]pyrimidin-2-yl)phenoxy)-N-(sec-butyl)acetamide] belongs 10 to 100 nM; to `CC(C)CNC(=O)COc1cccc(-c2nc3c(c(Nc4ccc(-c5cn[nH]c5)cc4)n2)COCC3)c1` [Example 104, 2-(3-(4-((4-(1H-pyrazol-4-yl)phenyl)amino)-7,8-dihydro-5H-pyrano[4,3-d]pyrimidin-2-yl)phenoxy)-N-isobutylacetamide], 10 to 100 nM; to `CC(C)(C)CNC(=O)COc1cccc(-c2nc3c(c(Nc4ccc(-c5cn[nH]c5)cc4)n2)COCC3)c1` [Example 105, 2-(3-(4-((4-(1H-pyrazol-4-yl)phenyl)amino)-7,8-dihydro-5H-pyrano[4,3-d]pyrimidin-2-yl)phenoxy)-N-neopentylacetamide], 10 to 100 nM. To `O=C(COc1cccc(-c2nc3c(c(Nc4ccc(-c5cn[nH]c5)cc4)n2)COCC3)c1)NC1CCCC1` [Example 108, 2-(3-(4-((4-(1H-pyrazol-4-yl)phenyl)amino)-7,8-dihydro-5H-pyrano[4,3-d]pyrimidin-2-yl)phenoxy)-N-cyclopentylacetamide] belongs 10 to 100 nM; to `O=C(COc1cccc(-c2nc3c(c(Nc4ccc(-c5cn[nH]c5)cc4)n2)COCC3)c1)NC1CCC1` [Example 109, 2-(3-(4-((4-(1H-pyrazol-4-yl)phenyl)amino)-7,8-dihydro-5H-pyrano[4,3-d]pyrimidin-2-yl)phenoxy)-N-cyclobutylacetamide], 10 to 100 nM; to `CC(C)(C)NC(=O)COc1cccc(-c2nc(Nc3ccc(-c4cn[nH]c4)cc3)c3sccc3n2)c1` [Example 110, 2-(3-(4-((4-(1H-pyrazol-4-yl)phenyl)amino)thieno[3,2-d]pyrimidin-2-yl)phenoxy)-N-(tert-butyl)acetamide], 101 to 250 nM. As for `CCC(C)(C)NC(=O)COc1cccc(-c2nc(Nc3ccc(-c4cn[nH]c4)cc3)c3sccc3n2)c1` [Example 111, 2-(3-(4-((4-(1H-pyrazol-4-yl)phenyl)amino)thieno[3,2-d]pyrimidin-2-yl)phenoxy)-N-(tert-pentyl)acetamide], the figure is 101 to 250 nM; as for `CC(=O)N1CCc2nc(-c3cccc(OCC(=O)NC(C)C)c3)nc(Nc3ccc(-c4cn[nH]c4)cc3)c2C1` [Example 112, 2-(3-(4-((4-(1H-pyrazol-4-yl)phenyl)amino)-6-acetyl-5,6,7,8-tetrahydropyrido[4,3-d]pyrimidin-2-yl)phenoxy)-N-isopropylacetamide], 101 to 250 nM; as for `CCC(CC)NC(=O)COc1cccc(-c2nc3c(c(Nc4ccc(-c5cn[nH]c5)cc4)n2)CN(C(C)=O)CC3)c1` [Example 113, 2-(3-(4-((4-(1H-pyrazol-4-yl)phenyl)amino)-6-acetyl-5,6,7,8-tetrahydropyrido[4,3-d]pyrimidin-2-yl)phenoxy)-N-(pentan-3-yl)acetamide], 10 to 100 nM.

In the case of `CC(=O)N1CCc2nc(-c3cccc(OCC(=O)NC(C)(C)C)c3)nc(Nc3ccc(-c4cn[nH]c4)cc3)c2C1` [Example 114, 2-(3-(4-((4-(1H-pyrazol-4-yl)phenyl)amino)-6-acetyl-5,6,7,8-tetrahydropyrido[4,3-d]pyrimidin-2-yl)phenoxy)-N-(tert-butyl)acetamide], the IC50 lay within 10 to 100 nM.

As to `CCC(CC)NC(=O)COc1cccc(-c2nc3c(c(Nc4ccc(-c5cn[nH]c5)cc4)n2)CN(CC)CC3)c1` [Example 118, 2-(3-(4-((4-(1H-pyrazol-4-yl)phenyl)amino)-6-ethyl-5,6,7,8-tetrahydropyrido[4,3-d]pyrimidin-2-yl)phenoxy)-N-(pentan-3-yl)acetamide], the IC50 fell in the range of 501 to 1000 nM.

Broadly, the IC50 is the midpoint of a concentration-inhibition curve.
